Values of other authors as cited in patent publication US20240139272A1, “USE OF A SPEARMINT EXTRACT FOR RETINA NEUROTROPHISM” (KEMIN INDUSTRIES, INC., priority 2022, published 2024).
Where two headings read alike, the source gives them in different places.

Test system: male Wistar rats
Details: for carrageenan-induced increase in paw volume (FIG. 1): 3 and 6 hours, spearmint extract at all doses, RA at the high dose (50 mg/kg), indomethacin 10 mg/kg

SMILES	paw volume increase compared to baseline (10 mg/kg intraperitoneal, 3 hours post-injection of carrageenan)	paw volume increase compared to baseline (10 mg/kg intraperitoneal, 6 hours post-injection of carrageenan)	carrageenan-induced increase in paw volume (FIG. 1)	paw volume increase compared to baseline (15 mg/kg intraperitoneal, 3 hours)	paw volume increase compared to baseline (15 mg/kg intraperitoneal, 6 hours)	paw volume increase compared to baseline (50 mg/kg intraperitoneal, 3 hours)	paw volume increase compared to baseline (50 mg/kg intraperitoneal, 6 hours)
COc1ccc2c(c1)c(CC(=O)O)c(C)n2C(=O)c1ccc(Cl)cc1 [Indomethacin]	6%	3%	substantially attenuated	–	–	–	–
O=C(/C=C/c1ccc(O)c(O)c1)O[C@H](Cc1ccc(O)c(O)c1)C(=O)O [rosmarinic acid]	–	–	substantially attenuated	20%	10%	7%	5%
